Measured values as given in patent publication US7067254B2, “Diagnosis and treatment of inflammation and hyperactive immune conditions” (Board of Regents, The University of Texas System, priority 2001, dated 2006).
Blank lines part the entries; values can stand above or below the compound they belong to.

Key:
bone marrow-derived DC [1] = test: ATP-mediated cytolysis of bone marrow-derived DC (cell viability, 7-AAD staining); format: cell-based, mouse
Text: (§1) FIGS. 6A, 6B, & 6C. P2Y receptor desensitization in CD39^−/− DC. […] (FIG. 6C), CD39^−/− or CD39^+/+ DC were pre-treated with apyrase or buffer alone and then examined for ATP-mediated activation responses. Data shown are the means±s.d. (n=3) of cell viability (left), IL-6 production (middle), and LY uptake (right). Statistically, significant differences are indicated by asterisks (** P<0.01).
(§2) Measurement of ATP responsiveness.

bone marrow-derived DC [2] = test: ATP-induced pore formation in bone marrow-derived DC (lucifer yellow uptake); format: cell-based, mouse; settings: 3 mM ATP, 15 min
Text: as §1, §2

[3] = Inflammatory skin responses to locally administered ATP; format: in vivo, mouse
bone marrow-derived DC [4] = test: ATP-induced IL-6 secretion by bone marrow-derived DC (ELISA); format: cell-based, mouse
Text: as §1, §2

Pam 212 keratinocytes [5] = test: ATP and ADP release from Pam 212 keratinocytes after skin irritant chemicals (luciferin-luciferase, pyruvate kinase); format: cell-based, mouse; settings: for ATP and ADP levels in culture supernatants: Pam 212 keratinocytes, 10 min incubation; for ATP release from Pam 212 keratinocytes: in vitro treatment, ATP in culture supernatants
Procedure: (§3) FIGS. 3A, 3B, & 3C. […] (FIG. 3A), Pam 212 keratinocytes were treated with croton oil (CO), benzalkonium chloride (BAC), or ethyl phenylpropiolate (EPP) at the indicated concentrations or exposed to UVB irradiation at the indicated doses. […] (FIG. 3C), Pam 212 keratinocytes and XS52 LC were co-cultured at the indicated cell densities and treated for 10 min with PBS alone or with 0.0015% BAC. All data shown in this figure are representative sets of results (mean±SD, n=3) from three independent experiments. * p<0.05; ** p<0.01 (two-tailed Student's t-test).
As the amount of ATP is directly proportional to the light emitted, quantification of the emitted light provides a measure of the amount of ATP. […] Cellular ATP release is then measured by: obtaining cells growing in culture; replacing the culture medium with a buffer; adding the ATP releasing agent (chemical irritant or a modulator of an NTPDase-mediated immune response); obtaining a sample of the buffer surrounding the cells after allowing sufficient time for ATP release by the cell in response to the irritant or modulator of an NTPDase-mediated immune response; adding luciferin and luciferase to this buffer; and quantitating the light released using a luminometer. A negative control can comprise obtaining the same reading with no cells; and/or obtaining the same reading with no added ATP releasing agent. The data are then analyzed by comparing to the standard ATP curve. Generally the cells in such assays may be grown in a multi-well format.
Additionally, the release of ADP into culture media can be measured by the pyruvate kinase-mediated conversion to ATP. This enzymatic assay utilizes pyruvate kinase (PK) which catalyzes the following reaction: Phospho(enol)pyruvate+ADP→Pyruvate+ATP
(§4) ATP and ADP released by endothelial cells and platelets are known to act as pro-inflammatory mediators in the vascular system.

Pam 212 keratinocytes [6] = test: LDH release from Pam 212 keratinocytes (CytoTox 96 assay kit); format: cell-based, mouse
Procedure: as §3, §4

[7] = mouse, in vivo
Text: (§5) FIGS. 4A, 4B, 4C, 4D, 4E, 4F, 4G, & 4H. Irritant contact hypersensitivity responses in CD39-deficient mice. CD39^−/− mice (circles), CD39^+/− mice (triangles) or CD39^+/+ mice (squares) received topical application of 1% croton oil (FIG. 4A), 10% BAC (FIG. 4B), or 30% EPP (FIG. 4C) on the right ear and vehicle alone on the left ear. […] Statistical significant differences compared to the CD39^+/+ mice or to the CD39^+/− mice are indicated by asterisks or sharps, respectively (*^/# p<0.05 and **^/## p<0.01; two-tailed Student's t test). FIG. 4D, Ear skin samples were harvested from CD39^+/+ or CD39^−/− mice 5 days after topical application of vehicle alone or 1% CO and processed to histological analyses after H&E staining (original magnification: ×250). FIG. 4E, CD39^−/− mice (n=6) or C57BL/6 wild-type mice (n=10) (FIG. 4F) received local injections of apyrase on the right ear (closed circles) or PBS alone on the left ear (open circles) before and after topical application of 1% CO on both ears. The data shown are the mean±SEM of the swelling responses (the ear thickness after CO application minus the baseline thickness before application) at the indicated time points. Statistical significant differences (one-tailed Student's t-test) are indicated by asterisks (*p<0.05 and **p<0.01). […]

IA+ epidermal cells = test: LC emigration: surface densities of IA+ epidermal cells after local injection of TNFα; format: in vivo, mouse; settings: CD39+/+ mice; local injection 100 ng/animal, 48 hr
Text: FIGS. 5A, 5B, 5C, 5D, 5E, 5F, 5G, & 5H. Attenuated immune responses in CD39-deficient mice. […] The data shown are the means±s.e.m. (n=10) of the swelling responses. […] (FIG. 5C) Mice received local injection of TNFα and examined for surface densities of IA^+ epidermal cells (means±s.d., n=3). At 24 hr after topical application of FITC, the DLN were examined for the numbers of migratory LC (means±s.d., n=3) (FIG. 5D) localization of FITC^+ migratory LC after counter-staining of the B cell areas with PE-conjugated B220 mAb (FIG. 5E), and for the surface phenotype of FITC^+ migratory LC (FIG. 5F). Closed and open histograms represent the staining profiles with the indicated mAb and control IgG, respectively. Numbers in the parentheses indicate the mean fluorescence intensities (MFI). (FIG. 5G), Migratory LC isolated from OX-painted CD39^−/− mice (circles) or CD39^+/+ mice (squares) were co-cultured with OX-reactive, wild-type T-cells. The data shown are the means±s.d. (n=3) of interferon-γ (IFN-γ) concentrations in the culture supernatants (* P<0.05). (FIG. 5H), Bone marrow-derived DC generated from CD39^−/− mice (circles) or CD39^+/+ mice (squares) were pulsed with TNBS and injected into CD39^+/+ mice. […]
Measurement of DC function. […] Maturational states of migratory LC were assessed by the surface expression of CD86 and CD40 by the FITC^+ populations in DLN. […]

cytotoxic T-cells = settings: cited from earlier work
[8] = Local apyrase injection in croton oil-induced ear swelling; format: in vivo, mouse
Text: as §5

endothelial cells = settings: soluble apyrase added in the medium; Imai et al., 2000; cited from earlier work

Compound: Nc1ncnc2c1ncn2[C@@H]1O[C@H](COP(=O)(O)OP(=O)(O)OP(=O)(O)O)[C@@H](O)[C@H]1O [ATP, adenosine triphosphate]
ATP concentration that killed DC significantly (bone marrow-derived DC [1]; CD39+/+ DC, 60 min incubation): 2.5 mM
ATP concentration up to which DC were resistant to cytolysis (bone marrow-derived DC [1]; CD39−/− DC, 60 min incubation): up to 10 mM
ATP-induced pore formation (lucifer yellow uptake) in CD39−/− DC (bone marrow-derived DC [2]): intact nucleotide responsiveness
inflammatory skin responses in CD39−/− mice [3]: markedly elevated inflammatory skin responses
IL-6 secretion in response to ATP (bone marrow-derived DC [4]; CD39+/+ vs CD39−/− DC, 1 mM ATP, 16 hr): CD39^+/+ DC, but not CD39^−/− DC, secreted IL-6

ear swelling responses in CD39−/− mice compared with CD39+/+ mice [7]: amplified significantly
Compound: CCOC(=O)C#Cc1ccccc1 [ethyl phenylpropiolate]
ATP and ADP levels in culture supernatants (Pam 212 keratinocytes [5]): detected at comparable levels
ATP release from Pam 212 keratinocytes (Pam 212 keratinocytes [5]): triggered rapid ATP release in a time- and dose-dependent manner
release of lactate dehydrogenase (LDH) (Pam 212 keratinocytes [6]): caused rapid release of lactate dehydrogenase (LDH)

Compound: TNFα
reduction in surface densities of IA+ epidermal cells (IA+ epidermal cells): about 50%

Compound: apyrase
effect on cytolytic capacity of cytotoxic T-cells (cytotoxic T-cells): inhibited partially
effect of apyrase pre-treatment on susceptibility of CD39−/− DC to ATP-mediated cytolysis (bone marrow-derived DC [1]; apyrase 5 U/ml, 10 min before 2.5 mM ATP): restored their susceptibility to ATP-mediated cytolysis
effect of apyrase pre-treatment on capacity of CD39−/− DC to secrete IL-6 upon ATP stimulation (bone marrow-derived DC [4]; apyrase 5 U/ml, 10 min before 1 mM ATP): restored
effect on early phase ear swelling responses to CO in CD39−/− mice ([8]; 0.2U/ear s.c. into ear 10 min before and 1 hr after 1% CO painting): diminished the extent of early phase responses
effect on CO-induced skin inflammation in wild-type C57BL/6 mice ([8]; 0.2U/ear s.c. into ear before and 1 hr after 1% CO painting): further reduced the extent of CO-induced skin inflammation
inhibition of LPS-induced IL-1 secretion (endothelial cells): can be inhibited

ear swelling responses in CD39−/− mice compared with CD39+/+ mice [7]: amplified significantly
Compound: benzalkonium chloride
ATP and ADP levels in culture supernatants (Pam 212 keratinocytes [5]): detected at comparable levels
ATP release from Pam 212 keratinocytes (Pam 212 keratinocytes [5]): triggered rapid ATP release in a time- and dose-dependent manner
release of lactate dehydrogenase (LDH) (Pam 212 keratinocytes [6]): caused rapid release of lactate dehydrogenase (LDH)
